Experimental data published in PMC6930622, “Validation of an HPLC Method for the Simultaneous Quantification of Metabolic Reaction Products Catalysed by CYP2C11 Enzymes in Rat Liver Microsomes: In Vitro Inhibitory Effect of Salicylic Acid on CYP2C11 Enzyme” (Molecules, 2019).

Target: T1, CYP2C11 (Rattus norvegicus, UniProt P08683)
T1 sequence (P08683 1-500): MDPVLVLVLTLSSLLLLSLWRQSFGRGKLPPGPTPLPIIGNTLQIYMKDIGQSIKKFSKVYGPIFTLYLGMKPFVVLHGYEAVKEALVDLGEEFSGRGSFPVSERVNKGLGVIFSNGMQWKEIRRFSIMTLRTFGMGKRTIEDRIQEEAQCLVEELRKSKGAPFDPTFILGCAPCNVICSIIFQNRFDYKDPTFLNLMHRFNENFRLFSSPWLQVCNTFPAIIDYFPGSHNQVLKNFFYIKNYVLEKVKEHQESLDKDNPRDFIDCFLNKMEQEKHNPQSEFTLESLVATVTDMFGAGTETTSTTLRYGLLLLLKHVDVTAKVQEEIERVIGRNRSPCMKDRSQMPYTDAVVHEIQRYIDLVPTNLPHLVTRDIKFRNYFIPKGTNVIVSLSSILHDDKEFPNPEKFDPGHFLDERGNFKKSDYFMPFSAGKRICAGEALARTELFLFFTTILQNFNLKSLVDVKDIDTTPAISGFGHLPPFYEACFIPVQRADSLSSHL
Test: testosterone […]α-hydroxylation in pooled male Sprague-Dawley rat liver microsomes, HPLC; Lineweaver-Burk
Assay type: biochemical

Q: For `O=C(O)c1ccccc1O` [salicylic acid], which Ki is on record?
A: 84.6 ± 2.67 µM
